Reference: US5192756A, “Aminosterol antibiotic” (The Children's Hospital of Pennsylvania, priority 1992, dated 1993)
Values after ≈ are worked out from the molar mass of the structure shown. No end group written: not given here.

Legend:
[1] = system: Paramecium caudatum; experiment: Minimal disruptive concentration, Paramecium caudatum; format: cell-based; settings: for Minimal Inhibitory Concentration (minimal disruptive concentration for the protozoa) / MIC: 1% trypticase soy broth, light microscopy for ten minutes; for MIC: read-out: Minimal Inhibitory Concentration (minimal disruptive concentration for the protozoa)
Procedure: (§1) Squalamine was assayed in vitro against several microbial organisms to evaluate its spectrum of activity.
(§2) Initial sample concentrations were 2 mg/ml in 250 mM sodium acetate pH 6.6, 11.2 mM HCl, except taurolithocholic acid 3-sulfate which was 2 mg/ml in 50 mM sodium acetate, and squalamine to which HCl was not added because it was acidic following the last step of purification. Spermidine HCl, taurolithocholic acid 3-sulfate, melittin, holothurin and ampicillin were purchased from Sigma (St. Louis, Miss.). CHAPS (3-[(3-cholamidopropyl)dimethylammonio]-1-propane sulfonate dihydrate) was purchased from Aldrich (Milwaukee, Wis.). Conessine was purchased from Aldrich Rare Chemicals Division (Milwaukee, Wis.). Magainin-II amide and CPF-amide were made by Magainin Pharmaceuticals, Inc. (Plymouth Meeting, Penn.). The CPF peptide used in the assay has the sequence […]-NH2. (Richter, K., et al., J. Biol. Chem. 261, 3676-3680 (1986).
(§3) Minimal disruptive concentration (the concentration at which physical disruption of the protozoa occurred) was determined for the protozoa by adding […] of sample (in sodium acetate as above) to […] of 1% trypticase soy broth containing P. caudatum (Nasco, Fort Atkinson, Wiss,). Organisms were observed by light microscopy for ten minutes.

[2] = system: E. coli; experiment: Minimal inhibitory concentration, E. coli; format: cell-based; settings: E. coli ATCC 25922, 1/2×TSB, 37° C., 18 to 24 hours; for MIC: Escherichia coli, ATCC25922
Procedure: as §1
(§4) Minimal inhibitory concentrations for the bacteria and yeast were determined by incubating 0.9-11×10^5 colony-forming units/ml of log-phase organisms in 1/2×tryptica soy broth (TSB) with increasing concentrations of sample in static 96-2311 microtiter plates (Corning, Inc., Corning, N.Y.) at 37° C. for 18 to 24 hours. The minimal inhibitory concentration is the concentration of sample at which no growth was observed. Control incubation in the absence of […] served to set a baseline value.
as §2

[3] = system: Strep. faecalis; experiment: Minimal inhibitory concentration, Strep. faecalis; format: cell-based; settings: Strep. faecalis ATCC 29212, 1/2×TSB, 37° C., 18 to 24 hours; for MIC: Enterococcus faecalis, ATCC29212
Procedure: as §1, §4, §2

[4] = system: Serratia marcescens; experiment: Minimal inhibitory concentration, Serratia marcescens; format: cell-based; settings: Serratia marcescens ATCC 8100, 1/2×TSB, 37° C., 18 to 24 hours; for MIC: ATCC8100
Procedure: as §1, §4, §2

[5] = system: Staph. aureus; experiment: Minimal inhibitory concentration, Staph. aureus; format: cell-based; settings: Staph. aureus ATCC 29213, 1/2×TSB, 37° C., 18 to 24 hours; for MIC: Staphylococcus aureus, ATCC29213
Procedure: as §1, §4, §2

[6] = system: Proteus vulgaris; experiment: Minimal inhibitory concentration, Proteus vulgaris; format: cell-based; settings: Proteus vulgaris ATCC 13315, 1/2×TSB, 37° C., 18 to 24 hours; for MIC: ATCC13315
Procedure: as §1, §4, §2

[7] = system: Pseudomonas aeruginosa; experiment: Minimal inhibitory concentration, Pseudomonas aeruginosa; format: cell-based; settings: Pseudomonas aeruginosa ATCC 27853, 1/2×TSB, 37° C., 18 to 24 hours; for MIC: ATCC27853
Procedure: as §1, §4, §2

[8] = system: Candida albicans; experiment: Minimal inhibitory concentration, Candida albicans; format: cell-based; settings: for Minimal Inhibitory Concentration / MIC: Candida albicans ATCC 14053, 1/2×TSB, 37° C., 18 to 24 hours; for MIC: ATCC14053
Procedure: as §1, §4, §2

[9] = system: human erythrocytes; experiment: Hemolytic activity against human erythrocytes; format: cell-based
Procedure: (§5) Because of its structural resemblance to steroidal detergents, squalamine was assayed for its hemolytic activity against human erythrocytes.
(§6) Each sample was diluted in H2 O and was added to a 10% (vol/vol) suspension of human erythrocytes in phosphate buffered saline (PBS). Erythrocytes were collected with heparin and washed once in 1×PBS before the assay. Samples were incubated at 37° C. for ten minutes, centrifuged at 12,000× g for one minute, and the OD350 of the supernatant was measured. Addition of Triton X-100 (final concentration 0.1%) defined 100% hemolysis.

[10] = system: several microbial organisms; experiment: In vitro antimicrobial spectrum (bacteria, fungi, protozoa), in words; format: cell-based; settings: for antibiotic activity (in words): bacteria, fungi, protozoa, concentration range studied
Procedure: as §1, §4, §2, §3

[11] = Hemolytic activity against human erythrocytes; format: cell-based; settings: human; 92 μg/ml; 10% erythrocytes in PBS, 37° C., ten minutes; Triton X-100 = 100%
Procedure: as §5, §6

[12] = system: E. coli D31; experiment: Protease resistance of antimicrobial activity (proteinase K); format: in vitro ADME; settings: proteinase K 2 mg/ml, one hour, 37° C.; E. coli D31 lawn
Procedure: Proteinase K (final concentration 2 mg/ml) was added to 0.2 μg/μl squalamine or 0.8 μg/μl magainin II amide in 1×phosphate-buffered saline. After a one hour incubation at 37° C., 2 μl of each sample was applied to the lawn of E. coli D31.

Row | Compound | Minimal Inhibitory Concentration (minimal disruptive concentration for the protozoa) [1] | Minimal Inhibitory Concentration [2] | Minimal Inhibitory Concentration [3] | Minimal Inhibitory Concentration [4] | Minimal Inhibitory Concentration [5] | Minimal Inhibitory Concentration [6] | Minimal Inhibitory Concentration [7] | Minimal Inhibitory Concentration [8] | MIC [1] | MIC [2] | MIC [3] | MIC [4] | MIC [5] | MIC [6] | MIC [7] | MIC [8] | hemolysis at 10 min [11] | antibiotic activity (in words) [10] | further results
1 | GFGSFLGKALKAALKIGANALGGSPQQ-NH2 [CPF, caerulein percursor fragment, Xenopus antimicrobial peptide] | 4 to 8 µg/mL | 8 to 16 µg/mL | 31 to 62 µg/mL | > 125 µg/mL | 8 to 16 µg/mL | 62 to 125 µg/mL | 8 to 31 µg/mL | 62 to 125 µg/mL | – | – | – | – | – | – | – | – | – | – | hemolysis ([9]; 92 μg/ml, 10% erythrocytes in PBS, 37° C., ten minutes, Triton X-100 = 100%, 10 min): 3%
2 | C[C@H]1[C@H]2CC[C@H]3[C@@H]4CC=C5C[C@@H](N(C)C)CC[C@]5(C)[C@H]4CC[C@]23CN1C [Conessine] | – | – | – | – | – | – | – | – | 16 to 33 µg/mL (≈ 44.9 to 92.5 µM) | > 500 µg/mL | > 500 µg/mL | > 500 µg/mL | > 500 µg/mL | > 500 µg/mL | > 500 µg/mL | 31 to 62 µg/mL (≈ 86.9 to 174 µM) | < 0.5% | – | antiprotozoan activity (in words) [1]: exhibits antifungal (Candida) and antiprotozoan (Paramecium caudatum) activity; antibacterial activity (in words) ([10]; bacteria of Table I): lacks antibacterial activity; antifungal activity (in words) ([8]; Candida): exhibits antifungal (Candida) and antiprotozoan (Paramecium caudatum) activity
3 | C[C@H](CCC(=O)NCCC[N+](C)(C)CCCS(=O)(=O)[O-])[C@H]1CC[C@H]2[C@@H]3[C@H](O)C[C@@H]4C[C@H](O)CC[C@]4(C)[C@H]3C[C@H](O)[C@]12C [CHAPS, 3-[(3-cholamidopropyl)dimethylammonio]-1-propane sulfonate dihydrate] | – | – | – | – | – | – | – | – | > 260 µg/mL | > 500 µg/mL | 250 to 500 µg/mL | > 500 µg/mL | > 500 µg/mL | > 500 µg/mL | > 500 µg/mL | > 500 µg/mL | < 0.5% | inactive as an antibiotic | –
4 | CC1(C)S[C@@H]2[C@H](NC(=O)[C@H](N)c3ccccc3)C(=O)N2[C@H]1C(=O)O [Ampicillin, ampicillin] | – | – | – | – | – | – | – | – | > 65 µg/mL | 2 to 4 µg/mL (≈ 5.72 to 11.4 µM) | < 0.25 µg/mL | 4 to 62 µg/mL (≈ 11.4 to 177 µM) | 1 µg/mL (≈ 2.86 µM) | 8 to 16 µg/mL (≈ 22.9 to 45.8 µM) | 62 to 125 µg/mL (≈ 177 to 358 µM) | > 125 µg/mL | < 0.5% | – | –
5 | NCCCCNCCCN [Spermidine] | – | – | – | – | – | – | – | – | > 260 µg/mL | > 500 µg/mL | 250 to 500 µg/mL (≈ 1720 to 3440 µM) | > 500 µg/mL | > 500 µg/mL | > 500 µg/mL | > 500 µg/mL | > 500 µg/mL | < 0.5% | inactive as an antibiotic | –
6 | C[C@H](CCC(=O)NCCS(=O)(=O)O)[C@H]1CC[C@H]2[C@@H]3CC[C@@H]4C[C@H](OS(=O)(=O)O)CC[C@]4(C)[C@H]3CC[C@]12C [Taurolithocholic Acid 3-sulfate, taurolithocholic acid 3-sulfate] | – | – | – | – | – | – | – | – | > 260 µg/mL | > 500 µg/mL | > 500 µg/mL | > 500 µg/mL | > 500 µg/mL | > 500 µg/mL | > 500 µg/mL | > 500 µg/mL | – | inactive as an antibiotic | –
7 | Magainin II | 33 to 65 µg/mL | 31 to 62 µg/mL | > 250 µg/mL | > 250 µg/mL | > 250 µg/mL | 125 to 250 µg/mL | 31 to 62 µg/mL | 125 to 250 µg/mL | – | – | – | – | – | – | – | – | – | – | antimicrobial activity after proteinase K digestion [12]: lost all activity on proteinase K digestion
8 | CC[C@H](C)[C@H](NC(=O)CN)C(=O)NCC(=O)N[C@@H](C)C(=O)N[C@H](C(=O)N[C@@H](CC(C)C)C(=O)N[C@@H](CCCCN)C(=O)N[C@H](C(=O)N[C@@H](CC(C)C)C(=O)N[C@H](C(=O)N[C@H](C(=O)NCC(=O)N[C@@H](CC(C)C)C(=O)N1CCC[C@H]1C(=O)N[C@@H](C)C(=O)N[C@@H](CC(C)C)C(=O)N[C@H](C(=O)N[C@@H](CO)C(=O)N[C@@H](Cc1c[nH]c2ccccc12)C(=O)N[C@H](C(=O)N[C@@H](CCCCN)C(=O)N[C@@H](CCCNC(=N)N)C(=O)N[C@@H](CCCCN)C(=O)N[C@@H](CCCNC(=N)N)C(=O)N[C@@H](CCC(N)=O)C(=O)N[C@@H](CCC(N)=O)C(N)=O)[C@@H](C)CC)[C@@H](C)CC)[C@@H](C)O)[C@@H](C)O)C(C)C)C(C)C [Melittin] | 2 to 4 µg/mL | 8 to 16 µg/mL | 4 to 16 µg/mL | > 250 µg/mL | 8 to 16 µg/mL | 16 to 31 µg/mL | 16 to 31 µg/mL | 16 to 31 µg/mL | – | – | – | – | – | – | – | – | – | – | antibiotic versus hemolytic concentration / selectivity (in words) ([9]; antibiotic activity compared with erythrocyte disruption): fall within a similar concentration range
